In patent US20110020235A1, “MR METHODS OF GRADING A TUMOR USING AN IMAGING MEDIUM THAT COMPRISES HYPERPOLARISED 13C-PYRUVATE” (priority 2007, published 2011):

Assay: T1 relaxation of 13C1-pyruvate in human full blood
Format: physicochemical
Details: human full blood at 37° C.

CC(=O)C(=O)O [13C1-pyruvate]
T1 relaxation: about 42 s
